Converted amounts (≈) assume the structure as drawn. Read-outs that look alike come from different tables or passages of the source.
Experiments:
[1] = Solubility measurement of freeze-dried nystatin formulations (NF) in distilled water; type: physicochemical; settings: vortex mixed 5 min, 0.45 μm filtered, absorption at 307 nm
Description: An excess amount of each NF formulation from Example 1 was placed into 0.5 mL of distilled water, and mixed vigorously for 5 min with a vortex mixer. After filtering the slurry with a 0.45 μm syringe filter, the filtrate was diluted with dimethylformamide (DMF) for analysis. The amount of nystatin in each NF composition was calculated by absorption spectroscopy at 307 nm.

[2] = Critical aggregation concentration (CAC) of nystatin by light scattering; type: physicochemical
Description: Nystatin (16 mg) was dissolved into 0.3 mL of dimethylsulfoxide (DMSO) under light protection, and was added into 15 mL of various aqueous Pluronic F127® solutions ranging from 0.1%-2.0%, making a 1100 μM nystatin solution. Each solution was serially diluted with the corresponding Pluronic F127® solution until a 3.8 μM nystatin concentration was obtained. After incubation at 37° C. for 30 min, each solution was subjected to light scattering using fluorimeter with fixed excitation wavelength of 450 nm. Band widths for excitation and emission were set at 3 nm and 1.5 nm, respectively. […] The intersection point of two linear lines was defined as the critical aggregation concentration (CAC) where self-aggregation of nystatin molecules begins, leading to an abrupt increase of intensity of scattered light.

[3] = system: Saccharomyces cerevisiae, ATCC 4921; experiment: Minimal inhibitory concentration (MIC) in YPD broth; type: cell-based; settings: 30° C., 24 hr, full inhibition by optical density at 600 nm
Description: NF samples were dissolved into DMSO and diluted with Bacto® YPD broth medium (10 g of Bacto® YPD in 200 mL of distilled water, and sterilized at 121° C.-124° C.), to give a nystatin level of 8 μg/mL. Nystatin levels were varied by serial dilution with broth medium to a level of 0.1 μg/mL. An aliquot (800 μL) of each nystatin sample was put into a microcentrifuge tube. 50 μL of the inoculum, containing 5×10^3 cfu/mL of Saccharomyces cerevisiae, ATCC 4921, in sterile distilled water, was added to each tube to give a total volume of 850 μL per tube. The tubes were incubated at 30° C. for 24 hr. A solvent control, Pluronic F127® control, and medium control were performed simultaneously to check the growth inhibiting activities of DMSO and Pluronic F127® as well as the sterility of the broth medium. […] The MIC for the nystatin formulations in accordance with the present invention was determined to be 3 μg/mL. The MIC of nystatin alone for Saccharomyces cerevisiae is about 3 μg/mL.

Saccharomyces cerevisiae = experiment: Minimal fungicidal concentration (MFC); type: cell-based; settings: 2 hrs contact at 37° C., no colony on YPD agar plate after 24 hr at 30° C.
Description: For measurement of minimal fungicidal concentration (MFC), the same procedure as the MIC measurement was employed up to the incubation step. Tubes containing Saccharomyces cerevisiae were placed in an incubator at 37° C. for 2 hrs., so that the cells might be killed. After 2 hrs. contact with the sample, the surviving cells were precipitated on the bottom of the tube by centrifugation (12000 g, 20 sec), and the supernatant decanted. […] All experiments were repeated three times. The MFC for the compositions in accordance with the present invention was determined to be 3 μg/mL.

[4] = system: erythrocytes (red blood cells)
[5] = Monomerizing (light scattering) effect of various surfactants on nystatin; type: physicochemical; settings: nystatin kept constant at 200 μM; FIG. 7
Description: Nystatin formulations were prepared with various surfactants similar to the method of Example 1. The concentration of drug was kept constant at 200 μM. The intensity of the scattered light was measured using a fluorimeter with a fixed excitation wavelength of […].

Molecule: C[C@@H]1[C@H](O)[C@@H](C)/C=C/C=C/CC/C=C/C=C/C=C/C=C/C(O[C@H]2O[C@H](C)[C@@H](O)[C@H](N)[C@@H]2O)CC2O[C@](O)(CC(O)C(O)CCC(O)CC(O)CC(O)CC(=O)O[C@H]1C)CC(O)C2C(=O)O (stereo partly shown) [pure Nys, Nystatin]
- Solubility [1]: 540 µg/mL (≈ 583 µM)
- Solubility ([1]; listed as pure nystatin): 500 µg/mL (≈ 540 µM)
- CAC ([2]; distilled water alone): 52.8 µM
- CAC ([2]; distilled water containing 0.1% Pluronic F127, 37° C. 30 min): 50.1 µM
- CAC ([2]; distilled water containing 0.5% Pluronic F127, 37° C. 30 min): 108.0 µM
- CAC ([2]; distilled water containing 1.0% Pluronic F127, 37° C. 30 min): 134.2 µM
- CAC ([2]; distilled water containing 1.5% Pluronic F127, 37° C. 30 min): 154.3 µM
- CAC ([2]; distilled water containing 2.0% Pluronic F127, 37° C. 30 min): 217.9 µM
- minimal inhibitory concentration (MIC) [3]: about 3 μg/mL
- minimal fungicidal concentration (MFC) (Saccharomyces cerevisiae): 12 µg/mL (≈ 13 µM)
- concentration of nystatin causing 50% hemolysis ([4]; PBS pH 7.0 containing 0.1% Pluronic F127, FIG. 4): ~120 µg/mL
- concentration of nystatin causing 50% hemolysis ([4]; PBS pH 7.0 containing 2% Pluronic F127, FIG. 4): ~270 µg/mL
- 50% hemolysis inducing level of Nys ([4]; Table 1, erythrocytes in isotonic PBS, 37° C., 30 min): 60 µg/mL
- concentration of nystatin causing 50% hemolysis ([4]; isotonic PBS, FIG. 3): about 55 μg/mL

Molecule: sorbitan mono-9-octadecanoate [Tween 80®]
- surfactant level showing deaggregating activity (decrease of light scattering intensity) [5]: about 100 μM
- concentration of surfactant alone causing 50% hemolysis [4]: less than 50 μg/mL
